pIC50: −log10 of the molar value. Active and inactive are the calls of the source. How the calls were made is not given here.
System: S. cerevisiae tim23-1 mutant growth, luminescence
Experiment: tim23-1 mutant yeast growth inhibitors, SAR follow-up, luminescence, S. cerevisiae (AID 602375)

| Compound | pIC50 | IC50 |
| --- | --- | --- |
| Cc1ccc2nc(NC(=O)C3CCCN3S(C)(=O)=O)sc2c1 (stereo unspecified) | 4.04 |  |
| COc1ccc(C2N=C(c3ccccc3C)NO2)cc1O (stereo unspecified) |  | > 99 µM (inactive) |
| Cc1nc2scc(C)n2c(=O)c1S(=O)(=O)Nc1ccc(F)cc1Cl | 4.28 |  |
| Cc1nc2scc(C)n2c(=O)c1S(=O)(=O)Nc1ccc(OC(F)(F)F)cc1 | 4.78 |  |
| CCN(CC)S(=O)(=O)c1ccc(C(=O)OCn2nnc3ccccc3c2=O)cc1 | 4.89 |  |
| CCn1c(N2CCN(S(=O)(=O)c3ccc(OC)cc3)CC2)nc2ccccc21 | 5.43 |  |
| N/C(=N\OC(=O)c1ccc2ncsc2c1)c1ccc(Cl)cc1Cl | 5.83 |  |
| N/C(=N\OC(=O)c1ccc(Cl)cc1)c1ccc(Cl)cc1 | 5.52 |  |
| CCOc1cc2ccccc2cc1C(=O)O/N=C(\N)c1ccc(Cl)cc1 | 5.80 |  |
| N/C(Cc1ccc(Cl)cc1)=N\OC(=O)COc1ccccc1Cl | 5.34 |  |
| Cc1cc2cc(CNC(=O)c3ccc(F)c(F)c3)ccc2[nH]1 |  | > 99 µM (inactive) |
| O=C(Nc1ccc2nc(-c3ccc(Br)o3)[nH]c2c1)c1cccs1 | 6.05 |  |
| CCCN(C(=O)c1ccc([N+](=O)[O-])c(C)c1)c1c(N)n(Cc2ccccc2)c(=O)[nH]c1=O | 6.01 |  |
| O=c1cc(CSc2ccc(S(=O)(=O)N3CCCCC3)cn2)nc2ccc(Br)cn12 | 4.15 |  |
| CC(=O)c1ccc(NS(=O)(=O)c2c(C)nc3scc(C)n3c2=O)cc1 | 4.80 |  |
| O=C(Nc1nc2c(s1)Cc1ccccc1-2)c1ccc(Br)s1 |  | > 99 µM (inactive) |
| Cc1ccc2nc(CS(=O)(=O)c3ncccc3Cl)cc(=O)n2c1 |  | > 99 µM (inactive) |
| Cc1nc2scc(C)n2c(=O)c1S(=O)(=O)Nc1cc(C(F)(F)F)ccc1Cl |  | > 99 µM (inactive) |
| COc1ccc(/C=C/C(=O)Nc2ccc3c(c2)CCC3)cc1OC | 5.76 |  |
| N/C(=N\OC(=O)c1ccc(Cl)cc1)c1ccc2nonc2c1 |  | > 99 µM (inactive) |
| Cc1ccc2nc(CSc3ccc(S(=O)(=O)N4CCCC4)cn3)cc(=O)n2c1 |  | > 99 µM (inactive) |
| Cc1cccn2c(=O)cc(CSc3cc(C(=O)NC4CC4)c4ccccc4n3)nc12 |  | > 99 µM (inactive) |

| Compound | pIC50 | IC50 |
| --- | --- | --- |
| Cc1nc2scc(C)n2c(=O)c1S(=O)(=O)Nc1cccc(O)c1 |  | > 99 µM (inactive) |
| Cc1ccc2nc(CSc3nc(C)c(C)c(C)c3C(N)=O)cc(=O)n2c1 | 4.53 |  |
| O=C(O/N=C(/c1ccc(Br)cc1)N1CCOCC1)c1ccccc1 | 6.10 |  |
| O=C(Nc1ccn[nH]1)c1ccc(Br)cc1Cl |  | > 99 µM (inactive) |
| Cc1nc2scc(C)n2c(=O)c1S(=O)(=O)Nc1ccccc1 |  | > 99 µM (inactive) |
| C(/C=C/c1ccccc1)=NNc1nc2ccccc2[nH]1 | 4.95 |  |
| Cc1nc2scc(C)n2c(=O)c1S(=O)(=O)Nc1ccc(Oc2ccc(Cl)cc2)cc1 |  | > 99 µM (inactive) |
| Cc1nc(SCc2cc(=O)n3cc(Br)ccc3n2)c(C#N)c(C)c1C |  | > 99 µM (inactive) |
| CCOc1ccc2nc(N3C(=O)CNC3=S)sc2c1 |  | > 99 µM (inactive) |
| Cc1ccc(-c2nc3ccc(NC(=O)c4cccs4)cc3[nH]2)o1 | 5.85 |  |
| COc1ccc([N+](=O)[O-])cc1NS(=O)(=O)c1c(C)nc2scc(C)n2c1=O |  | > 99 µM (inactive) |
| N/C(Cc1cccc2ccccc12)=N\OC(=O)COc1ccc(Cl)cc1Cl | 4.72 |  |
| N#Cc1c(-c2ccc([N+](=O)[O-])cc2)cc(-c2ccccc2)nc1N |  | > 99 µM (inactive) |
| CC(=O)Nc1ccc(C(C(F)(F)F)(C(F)(F)F)C(F)(F)F)cc1 |  | > 99 µM (inactive) |
| N#Cc1ccc(C2N=C(c3ccccc3)NO2)cc1 (stereo unspecified) |  | > 99 µM (inactive) |
| COc1ccc(Cl)cc1NS(=O)(=O)c1c(C)nc2scc(C)n2c1=O |  | > 99 µM (inactive) |
| O=S(=O)(Nc1ccc(-c2cn3c(n2)SCC3)cc1)c1cccnc1 |  | > 99 µM (inactive) |
| O=C(N/N=C/C(Cl)=C\c1ccccc1)c1cccs1 | 5.64 |  |
| O=C1OC(c2ccccc2)=N/C1=C\C=C\c1ccco1 | 5.61 |  |
| N#C/C(=C\c1ccc(Cl)cc1)C(=O)Nc1cccnc1 | 4.80 |  |
| Cc1c2c(n(Cc3ccco3)c1C)N=CN1CCS(=O)(=O)N=C21 |  | > 99 µM (inactive) |
| Cc1nc2scc(C)n2c(=O)c1S(=O)(=O)Nc1ccc(N2CCN(C(=O)C(C)C)CC2)cc1 |  | > 99 µM (inactive) |

| Compound | pIC50 | IC50 |
| --- | --- | --- |
| Cc1nn(Cc2cccc(C(=O)O/N=C(\N)c3ccc(Cl)cc3)c2)c(C)c1Br | 5.58 |  |
| O=C(CSCc1ccccc1)Nc1cc(S(=O)(=O)N2CCOCC2)ccc1Oc1ccccc1 |  | > 99 µM (inactive) |
| Cc1nc2scc(C)n2c(=O)c1S(=O)(=O)Nc1ccc(N2CCOCC2)cc1 | 4.79 |  |
| CC(C)Cn1cnc2c(c(-c3ccccc3)c(-c3ccccc3)n2Cc2ccco2)c1=N | 4.67 |  |
| CN1CCN(c2nc(-c3cccnc3)nc3ccccc23)CC1 |  | > 99 µM (inactive) |
| O=C(NN=C/C=C\c1ccco1)c1cccs1 | 5.16 |  |
| Cc1ccc(-c2cc(NC(=O)c3c(C)noc3C)nc(-c3ccccc3)c2)cc1 |  | > 99 µM (inactive) |
| O=C(Nc1ccc2nc(-c3ccco3)[nH]c2c1)c1cccs1 | 6.34 |  |
| Cc1cc(OCC(=O)O/N=C(\N)Cc2ccc(Cl)cc2)ccc1Br | 5.43 |  |
| Cc1nc2scc(C)n2c(=O)c1S(=O)(=O)Nc1ccc(N2CCOCC2)c(Cl)c1 |  | > 99 µM (inactive) |
| CC(=O)c1ccc2[nH]c3c(c2c1)CCCC3=O |  | > 99 µM (inactive) |
| O=c1cc(CSc2ccccn2)nc2ccccn12 |  | > 99 µM (inactive) |
| CCN(C(=O)c1cccc2ncccc12)c1c(N)n(Cc2ccccc2)c(=O)[nH]c1=O |  | > 99 µM (inactive) |
| N#Cc1c(-c2ccccc2)cc(-c2ccc(O)cc2)nc1N | 5.54 |  |
| COc1ccc(/C(N)=N/OC(=O)c2ccc(C(F)(F)F)cc2)c(OC)c1 |  | > 99 µM (inactive) |
| COc1ccc2c(C)cc(SCc3cc(=O)n4cc(C)ccc4n3)nc2c1 |  | > 99 µM (inactive) |
| Cc1ccc(/C(N)=N/OC(=O)c2ccccc2)cc1F | 5.82 |  |
| N/C(=N\OC(=O)c1ccc2ncsc2c1)c1ccccc1 | 4.83 |  |
| O=C(Nc1ccn[nH]1)c1cccc(OCc2cccnc2)c1 |  | > 99 µM (inactive) |
| N=c1c2c(-c3ccccc3)c(-c3ccccc3)n(Cc3ccco3)c2ncn1CCCN1CCOCC1 |  | > 99 µM (inactive) |
| Cc1ccc2nc(N3CCN(S(C)(=O)=O)CC3)[nH]c2c1 |  | > 99 µM (inactive) |
| Cc1nc2scc(C)n2c(=O)c1S(=O)(=O)Nc1ccc(Cl)c(C(F)(F)F)c1 |  | > 99 µM (inactive) |

| Compound | pIC50 | IC50 |
| --- | --- | --- |
| Cc1csc(NC(=O)c2sc3nc4c(cc3c2N)CN(C)CC4)n1 |  | > 99 µM (inactive) |
| O=c1cc(C(F)F)oc2c1ccc1ccccc12 |  | > 99 µM (inactive) |
| Cn1c(SCc2cccc(/C(N)=N/OC(=O)c3ccc(Cl)cc3)c2)nnc1C(F)(F)F | 5.63 |  |
| O=C(CSc1cccc[n+]1[O-])Nc1ccccc1Oc1ccccc1 | 5.97 |  |
| CN(C(=O)c1cccc(S(C)(=O)=O)c1)c1c(N)n(Cc2ccccc2)c(=O)[nH]c1=O |  | > 99 µM (inactive) |
| N/C(=N\OC(=O)c1ccc(Cl)cc1)c1ccc(-c2csnn2)cc1 |  | > 99 µM (inactive) |
| N/C(=N\OC(=O)c1ccc(Cl)cc1)c1ccc(Oc2ccc(C(F)(F)F)cn2)cc1 | 6.24 |  |
| Cc1ccc(-c2nn(-c3ccccc3)cc2NC(=O)CCl)cc1 | 5.76 |  |
| O=c1cc(CSc2ccc(C(F)(F)F)cn2)nc2ccc(Br)cn12 |  | > 99 µM (inactive) |
| CN1CCc2nc3sc(C(=O)C45CC6CC(CC(C6)C4)C5)c(N)c3cc2C1 | 4.74 |  |
| CC1(C)C=Cc2cc(/C(N)=N/OC(=O)c3ccccc3)ccc2O1 | 6.21 |  |
| O=C(Nc1ccc(-c2cn3ccccc3n2)cc1)c1cccs1 | 6.05 |  |
| O=C(Nc1nc2ccccc2s1)C1CCCN1S(=O)(=O)c1ccc(Cl)cc1 (stereo unspecified) | 4.92 |  |
| CCN1CCc2nc3sc(C(=O)Nc4cc(Cl)ccc4OC)c(N)c3cc2C1 |  | > 99 µM (inactive) |
| Cc1ccc(S(=O)(=O)Cc2cc(=O)n3ccccc3n2)nc1 |  | > 99 µM (inactive) |
| CCOc1ccc(C(=O)O/N=C(\N)c2ccc(OC)cc2)cc1OCC | 5.83 |  |
| CC(C)(C)c1csc(NC(=O)c2ccc(Cl)s2)n1 | 4.76 |  |
| Cc1nc2scc(C)n2c(=O)c1S(=O)(=O)Nc1ccc(N2CCN(S(C)(=O)=O)CC2)cc1 |  | > 99 µM (inactive) |
| O=C(O)c1cccnc1SCc1cc(=O)n2cc(Br)ccc2n1 |  | > 99 µM (inactive) |
| N/C(=N\OC(=O)c1ccc2ccccc2c1)c1ccc(I)cc1 |  | > 99 µM (inactive) |

From PubChem BioAssay AID602375 (Sanford-Burnham Center for Chemical Genomics, 2012)
